Experiments:
SREBP = SREBP luciferase reporter assay (pSRE-Luc) in CHO-K1 cells; format: cell-based; conditions: CHO-K1 cells
Description: Cell Culture: CHO-K1 cells were maintained in medium A (1:1 mixture of Ham's F-12 medium and DMEM, supplemented with 100 units/mL penicillin, 100 μg/mL streptomycin sulfate, and 5% [v/v] fetal bovine serum) at 37° C. in a humidified 5% CO2 incubator.
CHO-K1 cells were seeded into 96-well plates at 8×10^3 cells per well in medium A and incubated for 24 h. For SREBP reporter assay, cells were co-transfected with an SRE-1-driven luciferase reporter plasmid (pSRE-Luc) and an actin promoter-driven β-galactosidase expression plasmid (pAc-13-gal) at a 20:1 ratio, using FuGENE HD Transfection Reagent (Promega) according to the manufacturer's protocol.
After 20 h, the medium was changed to medium B (1:1 mixture of Ham's F-12 medium and DMEM, supplemented with 100 units/mL penicillin, 100 μg/mL streptomycin sulfate, 5% [v/v] lipid-depleted serum, 50 μM compactin (Tokyo Chemical Industry), and 50 μM lithium mevalonate (Sigma-Aldrich) containing the specific test compounds. After 24 h incubation, the cells in each well were lysed with 100 μL of 1× Reporter Lysis Buffer (Promega), and 50 μL of aliquots were used to measure luciferase and 13-gal activities. Luciferase activity was measured using the Steady-Glo Luciferase Assay System (Promega), and 13-gal activity was measured using the 13-Galactosidase Enzyme Assay System (Promega). Luciferase activity was normalized to 13-gal activity.
[…] The same experiment using of 25(OH)D3 (1) was performed as control. Values are mean±SD.

[1] = Short-term in vivo model: serum calcium levels; set-up: species or system mice; conditions: 10 mg/kg intraperitoneally, after 4 days, n=3, FIG. 5D
Description: To quickly and simultaneously examine their SREBP inhibitory activity and VDR-derived calcemic activity in vivo, a short-term in vivo screening system of mice was established. With reference to the previous report (Horton, J. D. et al. Proc. Natl. Acad. Sci. U.S.A. 1998, 95, 5987-5992.), mice were fasted for 48 hours then refed a special diet (low fat, high carbohydrate diet, lacking in vitamin D) for 48 hours before sacrifice.
(§1) C57BL/6 and oh/oh mice were purchased from CLEA Japan and Charles River Japan, Inc., respectively. Animal experiments were carried out at the University of Tokyo and Charles River Laboratories. Low fat, high carbohydrate diet, lacking vitamin D was custom made by Research Diets, Inc. Compounds disclosed herein and 25(OH)D3 were dissolved in ethanol/Tween 20 (9:1) to obtain stock solution and then diluted 10-fold with PBS immediately before administration to mice.
10 mg/kg compounds or vehicle control were administered intraperitoneally once every 24 hours during the fasting and refeeding.
(§2) Following sacrifice, mouse livers were fixed in 10% neutral-buffered formalin, embedded in paraffin, sectioned, and stained with H&E. Hepatic lipids were extracted with chloroform/methanol (2:1 v/v), and TG and cholesterol contents were measured with Triglyceride Reagent Set (Pointe Scientific) and Cholesterol E (Wako), respectively. Serum levels of ALT, TG, glucose, cholesterol, and calcium were measured in SRL Inc. (Tokyo). All experiments were approved by the Ethics Committee for Animal Experimentation of the University of Tokyo and Charles River Laboratories Japan, and were conducted in accordance with the Guidelines for the Care and Use of Laboratory Animals.
Serum calcium levels in the mice treated with vehicle, compounds, or 25(OH)D3 were determined (means±SEM, n=3 per group), *p<0.05 (FIG. 5D).

ob/ob mice = experiment: Long-term in vivo model of fatty liver in ob/ob mice
Description: as §1, §2
Six-week-old ob/ob mice were treated with 10 mg/kg KK-052, 10 mg/kg 25(OH)D3, or vehicle control 5 times per week for 4 weeks (FIG. 7A).
Body weights of ob/ob mice were measured and data are given as means±SEM (25(OH)D3, n=5; others, n=8), *p<0.05 (FIG. 7B).
Hepatic TG and cholesterol contents were measured in KK-052- or vehicle-treated ob/ob mice (means±SEM), *p<0.05 (FIG. 7D).
Serum levels of ALT, TG, total cholesterol, glucose, and calcium were measured in KK-052- or vehicle-treated ob/ob mice (means±SEM), *p<0.05 (FIG. 7E).

[2] = 10 mg/kg 5 times per week for 4 weeks
[3] = ob/ob mice, versus vehicle, FIG. 7D

Compound	SREBP inhibitory activity (expression of SREBP-responsive luciferase reporter gene) (SREBP; 5 μM compound, lipid-free medium, 24 h, FIGS. 1 and 3)	serum calcium levels [1]	general condition of treated ob/ob mice (ob/ob mice; [2])	inhibition of activation of the SREBP reporter gene, concentration dependence (SREBP; FIG. 6A)	weight gain (ob/ob mice; ob/ob mice, 10 mg/kg 5 times per week for 4 weeks, FIG. 7B)	liver steatosis (H&E histology) (ob/ob mice; ob/ob mice, 10 mg/kg, 4 weeks, FIG. 7C)	serum calcium levels versus vehicle-treated group (ob/ob mice; ob/ob mice, 10 mg/kg, 4 weeks, FIG. 7E)	serum level of TG (ob/ob mice; ob/ob mice, FIG. 7E)	serum level of alanine aminotransferase (ALT) (ob/ob mice; ob/ob mice, FIG. 7E)	serum level of glucose (ob/ob mice; ob/ob mice, FIG. 7E)	hepatic cholesterol content (ob/ob mice; [3])	hepatic triglyceride (TG) content (ob/ob mice; [3])
C=C1CC[C@H](O)C/C1=C/C=C1\CCC[C@]2(C)[C@@H]([C@H](C)CCCC(C)(C)O)CC[C@@H]12 [25(OH)D3, 25-hydroxyvitamin D3, reference compound]	substantial inhibitory activity	markedly increased	became sick due to hypercalcemia and euthanized at 1 week									
C[C@H](CCC(F)(F)C(C)(C)O)[C@H]1CC[C@H]2/C(=C/Cn3nnnc3-c3ccccc3)CCC[C@]12C [Compound 50, (R)-3,3-Difluoro-2-methyl-6-{(1R,3aS,7aR,E)-7a-methyl-4-[2-(5-phenyl-1H-tetrazol-1-yl)ethylidene]octahydro-1H-inden-1-yl}heptan-2-ol]		no detectable increase	appeared healthy until the end of the experiments	concentration-dependent manner comparable to 25(OH)D3	slightly but significantly decreased	attenuated	no detectable difference	significantly decreased	significantly decreased	significantly decreased	significantly decreased	significantly decreased

— US11932595B2, “VDR-silent vitamin D derivative as inhibitors of SREBP and pharmaceutical use thereof” (KYOTO UNIVERSITY, priority 2020, dated 2024)
